The values that follow come from US20180099931A1 (AbbVie S.à.r.l., priority 2016, published 2018).

For this assay, the target named is T1, F508delCFTR (Homo sapiens, UniProt P13569, DEL508-508).
T1 construct: expressed in transfected cells; host or cells: CFBE41o- human lung-derived epithelial cells (CFBE4lo-F508delCFTR-HRP), doxycycline-inducible
Briefly: Cell Surface Expression-Horse Radish Peroxidase (CSE-HRP) Assay.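 For Maximum % activity (with co-corrector): co-corrector and positive control are both the same reference corrector at 2 µM.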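 For Maximum % activity (without co-corrector): percent of the 2 µM on-plate positive control corrector response above DMSO.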 Format: cell-based. Particulars: for Maximum % activity (with co-corrector): with co-corrector (2 μM); for Maximum % activity (with co-corrector) / Emax: maximum at any tested concentration, normalized to on-plate positive control; for Emax: without co-corrector, read-out: Maximum % activity (without co-corrector).

[1] abbreviates: test compound without co-corrector, read-out: EC50 (without co-corrector).
Where [2] appears, read: with co-corrector (2 μM of 3-[(2R,4R)-4-({[1-(2,2-difluoro-1,3-benzodioxol-5-yl)cyclopropyl]carbonyl}amino)-7-methoxy-3,4-dihydro-2H-chromen-2-yl]benzoic acid), read-out: EC50 (with co-corrector).

Like-named read-outs stand apart in the source and are kept apart here.

T1 sequence (P13569 with tags, fused parts or gaps DEL508-508): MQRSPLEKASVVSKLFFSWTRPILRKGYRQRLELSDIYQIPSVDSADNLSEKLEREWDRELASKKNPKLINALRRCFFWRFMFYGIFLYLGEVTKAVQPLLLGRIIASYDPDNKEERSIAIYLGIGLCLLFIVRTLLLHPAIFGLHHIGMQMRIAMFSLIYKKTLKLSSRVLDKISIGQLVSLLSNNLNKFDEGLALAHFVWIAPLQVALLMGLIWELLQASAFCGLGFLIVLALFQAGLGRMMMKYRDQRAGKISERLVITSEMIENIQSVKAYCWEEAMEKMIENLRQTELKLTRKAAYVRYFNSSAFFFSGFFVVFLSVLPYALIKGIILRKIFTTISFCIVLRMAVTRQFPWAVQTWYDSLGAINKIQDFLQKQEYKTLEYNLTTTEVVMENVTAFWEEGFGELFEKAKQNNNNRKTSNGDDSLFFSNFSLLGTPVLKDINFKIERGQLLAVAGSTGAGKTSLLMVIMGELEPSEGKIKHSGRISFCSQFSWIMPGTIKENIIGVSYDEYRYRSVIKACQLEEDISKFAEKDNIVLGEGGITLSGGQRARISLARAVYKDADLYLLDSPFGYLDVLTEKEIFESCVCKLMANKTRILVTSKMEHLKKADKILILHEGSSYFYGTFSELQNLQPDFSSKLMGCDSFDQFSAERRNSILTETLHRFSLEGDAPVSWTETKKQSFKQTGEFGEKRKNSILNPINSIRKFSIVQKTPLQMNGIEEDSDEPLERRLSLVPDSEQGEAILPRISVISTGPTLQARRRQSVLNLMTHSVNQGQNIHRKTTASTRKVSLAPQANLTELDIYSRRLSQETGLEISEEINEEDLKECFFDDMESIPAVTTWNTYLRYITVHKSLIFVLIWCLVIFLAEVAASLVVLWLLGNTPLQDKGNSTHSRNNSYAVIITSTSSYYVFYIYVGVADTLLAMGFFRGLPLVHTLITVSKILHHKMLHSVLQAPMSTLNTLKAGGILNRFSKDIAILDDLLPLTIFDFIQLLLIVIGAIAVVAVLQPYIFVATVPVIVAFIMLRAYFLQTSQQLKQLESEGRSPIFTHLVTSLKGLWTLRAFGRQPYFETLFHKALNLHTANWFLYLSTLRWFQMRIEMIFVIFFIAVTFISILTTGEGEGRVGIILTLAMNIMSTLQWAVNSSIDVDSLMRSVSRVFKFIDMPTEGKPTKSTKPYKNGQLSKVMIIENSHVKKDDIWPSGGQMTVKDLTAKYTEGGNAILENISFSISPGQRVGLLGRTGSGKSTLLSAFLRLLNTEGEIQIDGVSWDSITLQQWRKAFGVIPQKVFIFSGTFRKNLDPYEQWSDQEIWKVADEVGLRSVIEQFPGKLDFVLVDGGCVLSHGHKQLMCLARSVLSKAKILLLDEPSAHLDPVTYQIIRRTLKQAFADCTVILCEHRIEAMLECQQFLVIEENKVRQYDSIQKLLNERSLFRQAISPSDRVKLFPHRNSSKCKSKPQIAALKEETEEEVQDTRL

For `COc1ncc(C2CC2)cc1CN[C@H]1[C@H](C(C)(C)C)[C@@H](C(=O)O)N(C(=O)[C@@H]2CCCCO2)[C@H]1c1ccccc1C(C)C` [Example 115, (2S,3S,4S,5S)-3-tert-butyl-4-{[(5-cyclopropyl-2-methoxypyridin-3-yl)methyl]amino}-1-[(2S)-oxane-2-carbonyl]-5-[2-(propan-2-yl)phenyl]pyrrolidine-2-carboxylic acid], the “Maximum % activity (with co-corrector)” value is “+++ (≥350)” and the Emax was above 200%. Further, under setting [1], the EC50 is 1000 to 10000 nM. Moreover, under setting [2], the EC50 is below 1000 nM.
As for `COc1ncc(C(F)(F)F)cc1CN[C@H]1[C@H](C(C)(C)C)[C@@H](C(=O)O)N(C(=O)[C@@H]2CCCCO2)[C@H]1c1ccccc1C1CC1` [Example 116, (2S,3S,4S,5S)-3-tert-butyl-5-(2-cyclopropylphenyl)-4-({[2-methoxy-5-(trifluoromethyl)pyridin-3-yl]methyl}amino)-1-[(2S)-oxane-2-carbonyl]pyrrolidine-2-carboxylic acid], the “Maximum % activity (with co-corrector)” value is reported as “+++ (≥350)” and the Emax is above 200%. Moreover, the EC50 under setting [1] lay in the range of 1000 to 10000 nM. For the same molecule, the EC50 under setting [2] was below 1000 nM.
Regarding `COc1ncc(C2CCC2)cc1CN[C@H]1[C@H](C(C)(C)C)[C@@H](C(=O)O)N(C(=O)C2CCCCC2)[C@H]1c1ccccc1C(C)C` [Example 117, (2S,3S,4S,5S)-3-tert-butyl-4-{[(5-cyclobutyl-2-methoxypyridin-3-yl)methyl]amino}-1-(cyclohexanecarbonyl)-5-[2-(propan-2-yl)phenyl]pyrrolidine-2-carboxylic acid], the “Maximum % activity (with co-corrector)” value is reported as “+++ (≥350)” and the Emax is above 200%. The EC50 under setting [1] was below 1000 nM. The EC50 under setting [2] was below 1000 nM.
In the case of `COc1ncc(C(F)(F)F)cc1CN[C@H]1[C@H](C(C)(C)C)[C@@H](C(=O)O)N(C(=O)C2CCCCC2)[C@H]1c1cccc2c1OC(C)(C)C2` [Example 118, (2S,3S,4S,5S)-3-tert-butyl-1-(cyclohexanecarbonyl)-5-(2,2-dimethyl-2,3-dihydro-1-benzofuran-7-yl)-4-({[2-methoxy-5-(trifluoromethyl)pyridin-3-yl]methyl}amino)pyrrolidine-2-carboxylic acid], the “Maximum % activity (with co-corrector)” value is given as “+++ (≥350)” and the Emax lay within 100 to 200%. For the same molecule, under setting [1], the EC50 was below 1000 nM. Under setting [2], the EC50 was below 1000 nM.
`COc1ncc(C2CCC2)cc1CN(C)[C@H]1[C@H](C(C)(C)C)[C@@H](C(=O)O)N(C(=O)[C@@H]2CCCCO2)[C@H]1c1ccccc1C(C)C` [Example 119, (2S,3S,4S,5S)-3-tert-butyl-4-{[(5-cyclobutyl-2-methoxypyridin-3-yl)methyl](methyl)amino}-1-[(2S)-oxane-2-carbonyl]-5-[2-(propan-2-yl)phenyl]pyrrolidine-2-carboxylic acid]: the “Maximum % activity (with co-corrector)” value is “+++ (≥350)” and the Emax is above 200%. In addition, the EC50 under setting [1] is below 1000 nM. Further, the EC50 under setting [2] is below 1000 nM.
Regarding `COc1ccc(C(F)(F)F)cc1CN[C@H]1[C@H](C(C)(C)C)[C@@H](C(=O)O)N(C(=O)[C@H](OC)c2ccccc2)[C@H]1c1ccccc1` [Example I-20], the “Maximum % activity (with co-corrector)” value is recorded as “+++ (≥350)” and the Emax was above 200%. Under setting [1], the EC50 was in the range of 1000 to 10000 nM. For the same molecule, under setting [2], the EC50 is below 1000 nM.
With `COc1ccc(C(F)(F)F)cc1CN[C@H]1[C@H](C(C)(C)C)[C@@H](C(=O)O)N(C(=O)[C@@H](OC)c2ccccc2)[C@H]1c1ccccc1` [Example I-34], the “Maximum % activity (with co-corrector)” value is “+++ (≥350)” and the Emax is above 200%. Under setting [1], the EC50 lay in the range of 1000 to 10000 nM. Besides, under setting [2], the EC50 is 1000 to 10000 nM.
Consider `COc1cc(C(F)(F)F)ccc1CN[C@H]1[C@H](C(C)(C)C)[C@@H](C(=O)O)N(C(=O)C2CCCCC2)[C@H]1c1cccnc1OC` [Example I-39], for which the “Maximum % activity (with co-corrector)” value is on record as “+++ (≥350)” and the Emax lay within 100 to 200%. The EC50 under setting [1] lay in the range of 1000 to 10000 nM. Further, the EC50 under setting [2] was below 1000 nM.
In the same order, the values of `COc1cc2ccccc2cc1CN[C@H]1[C@H](C(C)(C)C)[C@@H](C(=O)O)N(C(=O)C2CCCCC2)[C@H]1c1ccccc1` [Example I-42] are “+++ (≥350)”, above 200%, 1000 to 10000 nM and below 1000 nM.
As for `COc1cc(C(F)(F)F)ccc1CN[C@H]1[C@H](C(C)(C)C)[C@@H](C(=O)O)N(C(=O)C2CCCCC2)[C@H]1c1ccccc1OC(F)F` [Example I-43], the “Maximum % activity (with co-corrector)” value is “+++ (≥350)” and the Emax was below 100%. Under setting [1], the EC50 was 1000 to 10000 nM. The EC50 under setting [2] lay in the range of 1000 to 10000 nM.
For the molecule `COc1cc(C(F)(F)F)ccc1CN[C@H]1[C@H](C(C)(C)C)[C@@H](C(=O)O)N(C(=O)C2CCCCC2)[C@H]1c1cccnc1N(C)C` [Example I-44], the “Maximum % activity (with co-corrector)” value is on record as “+++ (≥350)” and the Emax was 100 to 200%. Also, under setting [1], the EC50 lay in the range of 1000 to 10000 nM. Further, the EC50 under setting [2] is 1000 to 10000 nM.
For the molecule `COc1cc(C(F)(F)F)ccc1CN[C@@H]1[C@@H](C(C)(C)C)[C@H](C(=O)O)N(C(=O)[C@H](C)c2ccccc2)[C@@H]1c1ccccc1` [Example I-45], the “Maximum % activity (with co-corrector)” value is given as “+ (<150)” and the Emax is below 100%. Moreover, the EC50 under setting [1] is above 10000 nM. Also, the EC50 under setting [2] was above 10000 nM.
On to `CC(C)(C)[C@H]1[C@H](NCc2cc3ccccc3o2)[C@H](c2ccccc2)N(C(=O)C2CCCCC2)[C@@H]1C(=O)O` [Example I-46], for which the “Maximum % activity (with co-corrector)” value was “++ (≥150 and <350)”; the Emax was below 100%. For the same molecule, under setting [1], the EC50 is 1000 to 10000 nM. Moreover, under setting [2], the EC50 fell in the range of 1000 to 10000 nM.
`CC(C)(C)[C@H]1[C@H](NCc2ccc3c(c2)OCCO3)[C@H](c2ccccc2)N(C(=O)C2CCCCC2)[C@@H]1C(=O)O` [Example I-47]: the “Maximum % activity (with co-corrector)” value is “++ (≥150 and <350)”; the Emax is below 100%. Under setting [1], the EC50 is above 10000 nM. For the same molecule, under setting [2], the EC50 fell in the range of 1000 to 10000 nM.
Consider `COc1ccc(-c2ccccc2)cc1CN[C@H]1[C@H](C(C)(C)C)[C@@H](C(=O)O)N(C(=O)C2CCCCC2)[C@H]1c1ccccc1` [Example I-48], for which the “Maximum % activity (with co-corrector)” value was “+++ (≥350)” and the Emax was above 200%. Besides, the EC50 under setting [1] was below 1000 nM. The EC50 under setting [2] was below 1000 nM.
With `COc1cc2c(cc1CN[C@H]1[C@H](C(C)(C)C)[C@@H](C(=O)O)N(C(=O)C3CCCCC3)[C@H]1c1ccccc1)CCC2` [Example I-49], the “Maximum % activity (with co-corrector)” value was “+++ (≥350)” and the Emax is above 200%. For the same molecule, the EC50 under setting [1] was in the range of 1000 to 10000 nM. Besides, under setting [2], the EC50 is below 1000 nM.
Take `CC(C)(C)[C@H]1[C@H](NCc2ccc(F)cc2OCC2CC2)[C@H](c2ccccc2)N(C(=O)C2CCCCC2)[C@@H]1C(=O)O` [Example I-50]: the “Maximum % activity (with co-corrector)” value is “++ (≥150 and <350)”; the Emax is below 100%. Also, under setting [1], the EC50 is 1000 to 10000 nM. Under setting [2], the EC50 was in the range of 1000 to 10000 nM.
As to `CC(C)(C)[C@H]1[C@H](NCc2cc(Cl)ccc2O)[C@H](c2ccccc2)N(C(=O)C2CCCCC2)[C@@H]1C(=O)O` [Example I-51], the “Maximum % activity (with co-corrector)” value is “++ (≥150 and <350)”; the Emax is below 100%. For the same molecule, the EC50 under setting [1] was above 10000 nM. In addition, the EC50 under setting [2] lay in the range of 1000 to 10000 nM.
Take `COc1ccc(C(C)(C)C)cc1CN[C@H]1[C@H](C(C)(C)C)[C@@H](C(=O)O)N(C(=O)C2CCCCC2)[C@H]1c1cccnc1N(C)C` [Example I-52]: the “Maximum % activity (with co-corrector)” value is recorded as “+++ (≥350)” and the Emax was above 200%. For the same molecule, the EC50 under setting [1] is below 1000 nM. For the same molecule, under setting [2], the EC50 was below 1000 nM.
As to `COc1ccc(C(F)(F)F)cc1CN[C@H]1[C@H](C(C)(C)C)[C@@H](C(=O)O)N(C(=O)C2CCCCC2)[C@H]1c1cccnc1N(C)C` [Example I-53], the “Maximum % activity (with co-corrector)” value is on record as “+++ (≥350)” and the Emax lay in the range of 100 to 200%. Moreover, the EC50 under setting [1] was 1000 to 10000 nM. Also, the EC50 under setting [2] lay in the range of 1000 to 10000 nM.
As to `CC(C)c1cc(C(F)(F)F)cc(N[C@H]2[C@H](C(C)(C)C)[C@@H](C(=O)O)N(C(=O)C3CCCCC3)[C@H]2c2ccccc2)n1` [Example I-54], the “Maximum % activity (with co-corrector)” value was “++ (≥150 and <350)”; the Emax was below 100%. In addition, the EC50 under setting [1] is 1000 to 10000 nM. In addition, the EC50 under setting [2] lay within 1000 to 10000 nM.
With `COc1c(C#N)c(N[C@H]2[C@H](C(C)(C)C)[C@@H](C(=O)O)N(C(=O)C3CCCCC3)[C@H]2c2ccccc2)nc2ccccc12` [Example I-55], the “Maximum % activity (with co-corrector)” value is given as “+++ (≥350)” and the Emax was below 100%. Under setting [1], the EC50 fell in the range of 1000 to 10000 nM. Moreover, the EC50 under setting [2] fell in the range of 1000 to 10000 nM.
For `CC(C)(C)[C@H]1[C@H](Nc2cccc(C(F)(F)F)c2)[C@H](c2ccccc2)N(C(=O)C2CCCCC2)[C@@H]1C(=O)O` [Example I-56], the “Maximum % activity (with co-corrector)” value is “+++ (≥350)” and the Emax is below 100%. Moreover, under setting [1], the EC50 was below 1000 nM. Further, the EC50 under setting [2] is below 1000 nM.
With `COc1ccc(Cl)cc1CN[C@H]1[C@H](C(C)(C)C)[C@@H](C(=O)O)N(C(=O)C2CCCCC2)[C@H]1c1ccccc1OC` [Example I-57], the “Maximum % activity (with co-corrector)” value is given as “+++ (≥350)” and the Emax was in the range of 100 to 200%. Besides, the EC50 under setting [1] lay in the range of 1000 to 10000 nM. Moreover, under setting [2], the EC50 was 1000 to 10000 nM.
As to `COc1ccc(C(C)(C)C)cc1CN[C@H]1[C@H](C(C)(C)C)[C@@H](C(=O)O)N(C(=O)[C@H]2CCC[C@H](OC)C2)[C@H]1c1ccccc1` [Example I-58], the “Maximum % activity (with co-corrector)” value is reported as “+++ (≥350)” and the Emax was above 200%. Further, under setting [1], the EC50 is 1000 to 10000 nM. Under setting [2], the EC50 was 1000 to 10000 nM.

Broadly, the EC50 is the concentration giving half of the maximal effect.
